Measured values from PMC10660311 (ACS Chemical Biology, 2023).

Key:
DTX3L/PARP9 complex = target: T1, DTX3L/PARP9 complex (Homo sapiens, UniProt Q8IXQ6+Q8TDB6); test: FP binding of fluorescent AR peptides to DTX3L/PARP9 complex; details: 50 nM peptide, RT 45 min, triplicate
T1 construct: made in house; host or cells: Sf21 insect cells
Description: Figure 2 Interaction of DTX3L/PARP9 and ADP-ribosylated AR peptides measured by FP assays. […] The reaction mixture was incubated at RT for 45 min, FP measured in a PHERAstar FSX Microplate Reader (BMG Labtech), and the binding curves were fitted for specific binding with GraphPad Prism v 9.3.1. The error bars represent the standard deviations.
Recombinant PARP9, DTX3L, and DTX3LΔN (N-terminal deletion mutant) were expressed in Sf21 insect cells and purified as previously described.[14] Complex formation of DTX3L/PARP9 or DTX3LΔN/PARP9 was carried out in an equal-molar ratio by incubating the proteins at >1 mg mL^–1 for each on ice for ∼4 h. Fluorescently labeled AR peptides (50 nM final concentration) 1–5 were mixed with various concentrations of the individual recombinant proteins or the protein complexes in a reaction buffer containing 20 mM Tris–HCl (pH 7.5), 50 mM NaCl, 0.1 mM EDTA, and 2 mM DTT, incubated at RT for 45 min and then measured in a PHERAstar FSX Microplate Reader (BMG Labtech). The assays were performed in triplicate. Competition assays were performed with 50 μM ADP-ribose. After correction for signals due to the fluorescent AR peptide alone, polarization values were plotted and analyzed with Prism (GraphPad) using nonlinear fit for specific binding with Hill slope.

[1] = target: dual ADP-ribosylated AR peptide 1, bis-ADP-ribosylated AR(280-294): CF-RPTPC(ADPr)APLAEC(ADPr)KGSL-OH; test: fluorescence polarisation; 50 nM CF-labelled AR peptide; recombinant protein or preassembled complex titrated (2500 nM or 2000 nM highest, 2-fold serial dilution); 20 mM Tris-HCl pH 7.5, 50 mM NaCl, 0.1 mM EDTA, 2 mM DTT; RT, 45 min; triplicate; fit for specific binding with Hill slope

Substance | binding to DTX3L/PARP9 (in words) (DTX3L/PARP9 complex) | Kd [1] [nM]
CF-Arg-Pro-Thr-Pro-Cys(5-O-adenosine-diphosphate-α-D-ribosyl)-Ala-Pro-Leu-Ala-OH [Peptide 3, CF-labeled mono-ADPr AR peptide] | near-background level of binding | 
CF-Pro-Leu-Ala-Glu-Cys(5-O-adenosine-diphosphate-α-D-ribosyl)-Lys-Gly-Ser-Leu-OH [Peptide 2, CF-labeled mono-ADPr AR peptide] | near-background level of binding | 
CF-RPTPCAPLAECKGSL-OH [Peptide 6] | did not bind significantly | 
DTX3LΔN/PARP9 complex (from UniProt Q8TDB6 1-740; Q8IXQ6 1-854) |  | > 500
